Measurements reported in patent publication US12065436B2, “Cardiac sarcomere inhibitors” (Cytokinetics, Inc., priority 2018, dated 2024).
pIC50: −log10 of the molar value.

Assays:
[1] = tested on: Dahl Salt Sensitive (DSS) rats, hypertension-induced model of heart failure with preserved ejection fraction; assay: Fibrosis reduction in Dahl Salt Sensitive rat model of cardiac hypertrophy; assay type: in vivo; conditions: high-salt diet fed DSS rats, compound formulated in chow for 6 weeks, perivascular and interstitial cardiac tissue
Experimental: Assessment of fibrosis reduction was performed using Dahl Salt Sensitive (DSS) rats, a previously reported hypertension-induced rat model of heart failure with preserved ejection fraction (Fillmore et al., Mol Med. 2018, 24(1):3; Dahl et al., J Exp Med. 1962, 115:1173-90).
DSS rats received vehicle or Compound 142 formulated in low or high salt chow for 6 weeks. Perivascular and interstitial cardiac tissue samples were imaged and assayed for % cardiac fibrosis.

[2] = biological target: bovine cardiac myofibrils (full-length cardiac myosin ATPase in the native sarcomere) (Bos taurus (Bovine), UniProt Q9BE39); assay: Skinned bovine cardiac myofibril ATPase assay (PK/LDH-coupled); assay type: biochemical; conditions: Ca2+ activating to 75% of maximal rate
In short: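 Inhibition of steady-state ATPase read at 340 nm through a PK/LDH-coupled NADH system (0.5 mM NADH, 1.5 mM PEP). Detergent-skinned bovine cardiac myofibrils, 1 mg/mL, were tested at pH 6.8 in PIPES/MgCl2 with 50 μM ATP and calcium adjusted to give pCa50 or pCa75 activation.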

Sequence of bovine cardiac myofibrils (full-length cardiac myosin ATPase in the native sarcomere) (Q9BE39 whole entry): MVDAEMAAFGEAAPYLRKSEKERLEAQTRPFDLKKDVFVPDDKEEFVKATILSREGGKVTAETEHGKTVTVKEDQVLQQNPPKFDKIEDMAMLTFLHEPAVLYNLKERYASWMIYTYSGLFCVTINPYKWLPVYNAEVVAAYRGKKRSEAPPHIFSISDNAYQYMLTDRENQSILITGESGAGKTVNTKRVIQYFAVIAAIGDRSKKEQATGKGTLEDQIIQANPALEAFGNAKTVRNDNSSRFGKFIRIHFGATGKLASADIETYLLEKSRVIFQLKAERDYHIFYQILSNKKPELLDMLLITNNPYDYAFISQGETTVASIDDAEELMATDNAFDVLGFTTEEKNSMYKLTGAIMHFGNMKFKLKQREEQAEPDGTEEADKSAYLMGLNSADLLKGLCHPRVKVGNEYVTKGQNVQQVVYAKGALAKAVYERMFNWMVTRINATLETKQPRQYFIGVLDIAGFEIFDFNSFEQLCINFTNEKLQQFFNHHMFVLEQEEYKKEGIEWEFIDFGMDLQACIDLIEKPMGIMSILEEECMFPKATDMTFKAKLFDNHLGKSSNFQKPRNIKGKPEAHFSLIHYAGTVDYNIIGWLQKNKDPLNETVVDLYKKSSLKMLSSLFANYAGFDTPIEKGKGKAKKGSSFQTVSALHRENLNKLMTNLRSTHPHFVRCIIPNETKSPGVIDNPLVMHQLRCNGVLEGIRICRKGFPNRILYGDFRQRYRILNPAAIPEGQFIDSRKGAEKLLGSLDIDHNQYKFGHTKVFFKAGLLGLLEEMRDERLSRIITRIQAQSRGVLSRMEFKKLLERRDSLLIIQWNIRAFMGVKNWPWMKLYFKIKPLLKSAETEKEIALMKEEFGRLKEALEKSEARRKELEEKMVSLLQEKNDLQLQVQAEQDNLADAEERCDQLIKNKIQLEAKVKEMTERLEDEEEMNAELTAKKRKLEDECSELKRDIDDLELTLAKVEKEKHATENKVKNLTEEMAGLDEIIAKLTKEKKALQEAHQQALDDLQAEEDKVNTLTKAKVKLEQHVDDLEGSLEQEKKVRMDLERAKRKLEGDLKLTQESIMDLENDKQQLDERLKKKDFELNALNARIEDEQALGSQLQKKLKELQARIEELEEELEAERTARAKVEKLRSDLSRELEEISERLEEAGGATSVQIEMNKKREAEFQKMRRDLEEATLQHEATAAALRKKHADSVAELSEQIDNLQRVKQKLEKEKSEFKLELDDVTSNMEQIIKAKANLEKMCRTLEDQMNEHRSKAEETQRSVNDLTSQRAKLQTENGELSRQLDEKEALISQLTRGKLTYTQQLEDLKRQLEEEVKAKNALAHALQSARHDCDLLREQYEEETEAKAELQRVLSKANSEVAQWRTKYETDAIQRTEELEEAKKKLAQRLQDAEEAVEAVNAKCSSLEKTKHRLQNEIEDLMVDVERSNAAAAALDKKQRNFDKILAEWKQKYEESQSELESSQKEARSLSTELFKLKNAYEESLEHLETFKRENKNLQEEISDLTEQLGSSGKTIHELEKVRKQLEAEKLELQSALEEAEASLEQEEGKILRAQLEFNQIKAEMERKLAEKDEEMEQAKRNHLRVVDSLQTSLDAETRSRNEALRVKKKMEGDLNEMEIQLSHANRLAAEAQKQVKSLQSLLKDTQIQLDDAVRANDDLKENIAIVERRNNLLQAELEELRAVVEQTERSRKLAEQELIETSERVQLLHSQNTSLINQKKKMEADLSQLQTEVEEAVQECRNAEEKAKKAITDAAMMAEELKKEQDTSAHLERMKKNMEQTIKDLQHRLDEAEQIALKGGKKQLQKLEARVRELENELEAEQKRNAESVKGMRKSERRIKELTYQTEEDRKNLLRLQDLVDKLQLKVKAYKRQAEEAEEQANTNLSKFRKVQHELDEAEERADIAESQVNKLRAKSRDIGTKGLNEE
Sequence of bovine cardiac myofibrils (full-length cardiac myosin ATPase in the native sarcomere) (P85100 whole entry partner): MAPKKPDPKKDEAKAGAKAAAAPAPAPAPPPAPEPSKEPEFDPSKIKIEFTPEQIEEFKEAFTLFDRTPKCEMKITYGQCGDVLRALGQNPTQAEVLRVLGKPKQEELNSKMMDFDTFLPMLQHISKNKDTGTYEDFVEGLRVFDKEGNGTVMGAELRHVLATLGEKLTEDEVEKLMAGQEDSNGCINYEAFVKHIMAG
Sequence of bovine cardiac myofibrils (full-length cardiac myosin ATPase in the native sarcomere) (Q3SZE5 whole entry partner): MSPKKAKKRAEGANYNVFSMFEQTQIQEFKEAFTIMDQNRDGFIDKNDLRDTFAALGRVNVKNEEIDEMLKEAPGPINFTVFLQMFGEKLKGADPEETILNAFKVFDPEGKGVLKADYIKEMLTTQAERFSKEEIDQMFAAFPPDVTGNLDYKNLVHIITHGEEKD

CC(C)c1nc(-c2ccc3c(c2)CC[C@H]3NC(=O)c2nnn(C)n2)no1 [Compound 142, (R)—N-(5-(5-isopropyl-1,2,4-oxadiazol-3-yl)-2,3-dihydro-1H-inden-1-yl)-2-methyl-2H-tetrazole-5-carboxamide]
% cardiac fibrosis [1]: attenuated increases in fibrosis | CDMF75 IC15 ([2]; concentration giving 15% inhibition): 500 nM | pIC50 ([2]; read-out: CDMF75 IC50): 5.62
